Assay results taken from patent US20240092835A1, “NOVEL PEPTIDES CAPABLE OF ALTERING NK CELL ACTIVITY” (Massachusetts Institute of Technology, priority 2022, published 2024).

Assays:
NKG2A−/NKG2C+ NK cells = assay: NK cell activation markers in NKG2A-/NKG2C+ NK cells incubated with peptide and K562 expressing HLA-E (activation); type: cell-based, human; settings: for effect on NKG2A−/NKG2C+ NK cell activation (in words): K562 expressing HLA-E, CD107a, IFNG, TNF, CCL3; for percentage of CCL3+ NK cells / percentage of CD107+ NK cells / percentage of IFNG+ NK cells / percentage of TNF+ NK cells: NKG2A-/NKG2C+ NK cells, K562/HLA-E
Summary of the method: (§1)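 HLA-E-expressing K562 cells incubated with peptides from human or human cytomegalovirus proteomes, then with NK cell subsets sorted by NKG2A/NKG2C status. Read-out is percent of cells positive for surface markers; a rise indicates activation, a fall inhibition.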

NKG2A−/NKG2C− NK cells = assay: NK cell activation markers in control NKG2A-/NKG2C- NK cells incubated with peptide and K562 expressing HLA-E; type: cell-based, human
Summary of the method: as §1

HLA-E = target: T1, HLA-E (Homo sapiens, UniProt P13747); assay: HLA-E surface stabilization assay with RMA-S/HLA-E cells; type: cell-based; settings: 30 μM peptide, 16 hours, anti-HLA-E antibody
T1 construct: expressed in transfected cells; host or cells: RMA-S/HLA-E cells (antigen processing-defective lymphoma cell line)
T1 sequence (P13747 22-358): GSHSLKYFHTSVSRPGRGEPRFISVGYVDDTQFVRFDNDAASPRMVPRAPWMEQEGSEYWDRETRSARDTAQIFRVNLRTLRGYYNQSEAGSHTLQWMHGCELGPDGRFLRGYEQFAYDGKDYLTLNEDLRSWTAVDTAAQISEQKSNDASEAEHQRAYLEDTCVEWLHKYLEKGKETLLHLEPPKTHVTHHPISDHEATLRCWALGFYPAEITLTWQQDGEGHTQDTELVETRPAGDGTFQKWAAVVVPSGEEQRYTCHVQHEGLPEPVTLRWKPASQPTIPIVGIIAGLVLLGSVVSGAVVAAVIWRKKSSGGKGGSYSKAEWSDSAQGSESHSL
T1 sequence (P61769 21-119 partner): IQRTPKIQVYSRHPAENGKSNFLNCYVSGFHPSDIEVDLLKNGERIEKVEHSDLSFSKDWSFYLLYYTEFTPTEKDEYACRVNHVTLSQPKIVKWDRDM
Method: HLA-E surface expression was assessed by measuring geometric mean fluorescence intensity (GeoMFI) in RMA-S cells following immunofluorescence staining with an anti-HLA-E antibody (Table 14). Increased GeoMFI was indicative of increased HLA-E surface expression stability following novel peptide exposures (FIG. 3).

NKG2A+/NKG2C− NK cells = assay: NK cell activation markers in NKG2A+/NKG2C- NK cells incubated with peptide and K562 expressing HLA-E (inhibition); type: cell-based, human; settings: for percentage of CCL3+ NK cells / percentage of CD107a+ NK cells / percentage of IFNG+ NK cells / percentage of TNF+ NK cells: NKG2A+/NKG2C- NK cells, K562/HLA-E
Summary of the method: as §1

With “TLPERTLYL [human7, peptide ECEL1 269-277 derived from the human proteome]” the “effect on NKG2A−/NKG2C+ NK cell activation (in words)” value (NKG2A−/NKG2C+ NK cells; listed as SEQ ID NO. 11) was “strong activating effects”, the “effect on NKG2A−/NKG2C+ NK cell activation (in words)” value (NKG2A−/NKG2C+ NK cells; listed as h7) was “strong inhibitory and activating effects” and the “percentage of CCL3+ NK cells” value (NKG2A−/NKG2C+ NK cells; Trial 1) was 77%. The “percentage of CD107+ NK cells” value (NKG2A−/NKG2C+ NK cells; Trial 1) was 76.2%, the “percentage of IFNG+ NK cells” value (NKG2A−/NKG2C+ NK cells; Trial 1) was 66.6% and the “percentage of TNF+ NK cells” value (NKG2A−/NKG2C+ NK cells; Trial 1) was 54.5%. For the same sequence, the “percentage of CCL3+ NK cells” value (NKG2A−/NKG2C+ NK cells; Trial 2) was 92.4%, the “percentage of CD107+ NK cells” value (NKG2A−/NKG2C+ NK cells; Trial 2) was 89.5% and the “percentage of IFNG+ NK cells” value (NKG2A−/NKG2C+ NK cells; Trial 2) was 87.3%. The “percentage of TNF+ NK cells” value (NKG2A−/NKG2C+ NK cells; Trial 2) was 79.9%, the “percentage of CCL3+ NK cells” value (NKG2A−/NKG2C+ NK cells; Trial 3) was 87.5% and the “percentage of CD107+ NK cells” value (NKG2A−/NKG2C+ NK cells; Trial 3) was 87.7%. For the same sequence, the “percentage of IFNG+ NK cells” value (NKG2A−/NKG2C+ NK cells; Trial 3) was 79.8%, the “percentage of TNF+ NK cells” value (NKG2A−/NKG2C+ NK cells; Trial 3) was 70.1% and the “percentage of CCL3+ NK cells” value (NKG2A−/NKG2C+ NK cells; Trial 4) was 61.5%. The “percentage of CD107+ NK cells” value (NKG2A−/NKG2C+ NK cells; Trial 4) was 63.2%, the “percentage of IFNG+ NK cells” value (NKG2A−/NKG2C+ NK cells; Trial 4) was 54.1% and the “percentage of TNF+ NK cells” value (NKG2A−/NKG2C+ NK cells; Trial 4) was 47.8%. The “percentage of CCL3+ NK cells” value (NKG2A−/NKG2C+ NK cells; Trial 5) was 77.3%, the “percentage of CD107+ NK cells” value (NKG2A−/NKG2C+ NK cells; Trial 5) was 76.5% and the “percentage of IFNG+ NK cells” value (NKG2A−/NKG2C+ NK cells; Trial 5) was 70%. For the same sequence, the “percentage of TNF+ NK cells” value (NKG2A−/NKG2C+ NK cells; Trial 5) was 66.1%, the “percentage of CCL3+ NK cells” value (NKG2A−/NKG2C+ NK cells; Trial 6) was 55.6% and the “percentage of CD107+ NK cells” value (NKG2A−/NKG2C+ NK cells; Trial 6) was 55.3%. The “percentage of IFNG+ NK cells” value (NKG2A−/NKG2C+ NK cells; Trial 6) was 45.4%, the “percentage of TNF+ NK cells” value (NKG2A−/NKG2C+ NK cells; Trial 6) was 37.8% and the “percentage CCL3+ NK cells” value (NKG2A−/NKG2C− NK cells; Trial 1) was 30.7%. For the same sequence, the “percentage CD107+ NK cells” value (NKG2A−/NKG2C− NK cells; Trial 1) was 21.8%, the “percentage TNF+ NK cells” value (NKG2A−/NKG2C− NK cells; Trial 1) was 4.13% and the “percentage of IFNG+ NK cells” value (NKG2A−/NKG2C− NK cells; Trial 1) was 13.3%. The “percentage CCL3+ NK cells” value (NKG2A−/NKG2C− NK cells; Trial 2) was 49.5%, the “percentage CD107+ NK cells” value (NKG2A−/NKG2C− NK cells; Trial 2) was 27.4% and the “percentage TNF+ NK cells” value (NKG2A−/NKG2C− NK cells; Trial 2) was 7.88%. The “percentage of IFNG+ NK cells” value (NKG2A−/NKG2C− NK cells; Trial 2) was 23.4%, the “percentage CCL3+ NK cells” value (NKG2A−/NKG2C− NK cells; Trial 3) was 47% and the “percentage CD107+ NK cells” value (NKG2A−/NKG2C− NK cells; Trial 3) was 41.8%. For the same sequence, the “percentage TNF+ NK cells” value (NKG2A−/NKG2C− NK cells; Trial 3) was 14.2%, the “percentage of IFNG+ NK cells” value (NKG2A−/NKG2C− NK cells; Trial 3) was 34.9% and the “percentage CCL3+ NK cells” value (NKG2A−/NKG2C− NK cells; Trial 4) was 27.4%. For the same sequence, the “percentage CD107+ NK cells” value (NKG2A−/NKG2C− NK cells; Trial 4) was 24%, the “percentage TNF+ NK cells” value (NKG2A−/NKG2C− NK cells; Trial 4) was 7.92% and the “percentage of IFNG+ NK cells” value (NKG2A−/NKG2C− NK cells; Trial 4) was 16.4%. For the same sequence, the “percentage CCL3+ NK cells” value (NKG2A−/NKG2C− NK cells; Trial 5) was 22.9%, the “percentage CD107+ NK cells” value (NKG2A−/NKG2C− NK cells; Trial 5) was 17.2% and the “percentage TNF+ NK cells” value (NKG2A−/NKG2C− NK cells; Trial 5) was 5.21%. For the same sequence, the “percentage of IFNG+ NK cells” value (NKG2A−/NKG2C− NK cells; Trial 5) was 12.7%, the “percentage CCL3+ NK cells” value (NKG2A−/NKG2C− NK cells; Trial 6) was 22.6% and the “percentage CD107+ NK cells” value (NKG2A−/NKG2C− NK cells; Trial 6) was 20.5%. For the same sequence, the “percentage TNF+ NK cells” value (NKG2A−/NKG2C− NK cells; Trial 6) was 4.34%, the “percentage of IFNG+ NK cells” value (NKG2A−/NKG2C− NK cells; Trial 6) was 10.9% and the “HLA-E surface expression stability (GeoMFI)” value (HLA-E; Trial 1) was 3203 GeoMFI. The “HLA-E surface expression stability (GeoMFI)” value (HLA-E; Trial 2) was 3535 GeoMFI, the “HLA-E surface expression stability (GeoMFI)” value (HLA-E; Trial 3) was 3903 GeoMFI and the “HLA-E surface expression stability (GeoMFI)” value (HLA-E; Trial 4) was 4464 GeoMFI. For the same sequence, the “effect on NKG2A+/NKG2C− NK cell inhibition (in words)” value (NKG2A+/NKG2C− NK cells; K562 expressing HLA-E, CD107a, IFNG, TNF, CCL3) was “strong inhibitory”, the “percentage of CCL3+ NK cells” value (NKG2A+/NKG2C− NK cells; Trial 1) was 1.37% and the “percentage of CD107a+ NK cells” value (NKG2A+/NKG2C− NK cells; Trial 1) was 0.52%. The “percentage of IFNG+ NK cells” value (NKG2A+/NKG2C− NK cells; Trial 1) was 0.13%, the “percentage of TNF+ NK cells” value (NKG2A+/NKG2C− NK cells; Trial 1) was 0.05% and the “percentage of CCL3+ NK cells” value (NKG2A+/NKG2C− NK cells; Trial 2) was 1.85%. The “percentage of CD107a+ NK cells” value (NKG2A+/NKG2C− NK cells; Trial 2) was 0.72%, the “percentage of IFNG+ NK cells” value (NKG2A+/NKG2C− NK cells; Trial 2) was 0.21% and the “percentage of TNF+ NK cells” value (NKG2A+/NKG2C− NK cells; Trial 2) was 0.11%. The “percentage of CCL3+ NK cells” value (NKG2A+/NKG2C− NK cells; Trial 3) was 1.62%, the “percentage of CD107a+ NK cells” value (NKG2A+/NKG2C− NK cells; Trial 3) was 0.59% and the “percentage of IFNG+ NK cells” value (NKG2A+/NKG2C− NK cells; Trial 3) was 0.49%. For the same sequence, the “percentage of TNF+ NK cells” value (NKG2A+/NKG2C− NK cells; Trial 3) was 0.1%, the “percentage of CCL3+ NK cells” value (NKG2A+/NKG2C− NK cells; Trial 4) was 0.64% and the “percentage of CD107a+ NK cells” value (NKG2A+/NKG2C− NK cells; Trial 4) was 0.71%. For the same sequence, the “percentage of IFNG+ NK cells” value (NKG2A+/NKG2C− NK cells; Trial 4) was 0.16%, the “percentage of TNF+ NK cells” value (NKG2A+/NKG2C− NK cells; Trial 4) was 0.08% and the “percentage of CCL3+ NK cells” value (NKG2A+/NKG2C− NK cells; Trial 5) was 1.26%. For the same sequence, the “percentage of CD107a+ NK cells” value (NKG2A+/NKG2C− NK cells; Trial 5) was 0.64%, the “percentage of IFNG+ NK cells” value (NKG2A+/NKG2C− NK cells; Trial 5) was 0.28% and the “percentage of TNF+ NK cells” value (NKG2A+/NKG2C− NK cells; Trial 5) was 0.18%. For the same sequence, the “percentage of CCL3+ NK cells” value (NKG2A+/NKG2C− NK cells; Trial 6) was 2.68%, the “percentage of CD107a+ NK cells” value (NKG2A+/NKG2C− NK cells; Trial 6) was 1.96% and the “percentage of IFNG+ NK cells” value (NKG2A+/NKG2C− NK cells; Trial 6) was 0.67%. The “percentage of TNF+ NK cells” value (NKG2A+/NKG2C− NK cells; Trial 6) was 0.38%.
